The structures appear in SMILES notation.

One data set has as its system platelets. The note with it: cited from earlier work.
The conditions of data set [1]: intrapleural, 100 mg/day in 50 ml saline for 4 days; cited from earlier work.
Another data set deals with p53. The note with it: cited from earlier work.
The test system of data set [2] is subcutaneous U87-MG gliomas. Nature of the data set: Mice bearing subcutaneous U87-MG gliomas. The data set is classed as in vivo. An excerpt: The estimated survival prolongment is 14 days in mice life which compares at 851 days in human life based on a life expectancy of 18 months in mice and 90 years in human. Also, since one animal was tumor-free at the end of the treatment that translates in an expected 16% cure rate.
FIG. 29a graphs % tumor weight/control as a function of days after implantation. […] Such a profile indicates effectiveness in vivo for both treatment and for prevention of relapse. FIG. 29b graphs % animal survival as a function of days after implantation. […] Such a profile indicates effectiveness in vivo for both treatment and for prevention of relapse.
Mice bearing subcutaneous gliomas were received daily oral administration of 200 mg/kg of quinacrine. […] In FIG. 29 is shown the effect of 100 mg/kg of quinacrine and 10 mg/kg 9-aminoacridine in Mice bearing subcutaneous U87-MG gliomas.

The subject of the next data set is DNA. Conditions: cited from earlier work.
In another data set the test system is tumor cells. The note with it: in vitro and in vivo; cited from earlier work.
Data set [3] concerns U87-MG skin xenograft tumor explants. Nature of the data set: U87-MG skin xenograft tumor explants, ERSR markers. The data set is classed as in vivo, mice. The note with it: samples after 7 and 21 days. An excerpt:
U7 represents vehicle treated sample after 7 days. U21 represents vehicle treated sample after 21 days. Q7 represents quinacridine-treated sample after 7 days. Q21 represents quinacridine-treated sample after 21 days. 9AA-7 represents 9-aminoacridine-treated sample after 7 days. 9AA-21 represents 9-aminoacridine-treated sample after 21 days.

In another data set the test system is glioma cells. Description: Gliotoxicity, cell line not stated. The data set is classed as cell-based. From the text:
Spiperone is a selective D2 dopamine receptor antagonist. This drug is used in the treatment of schizophrenia and other hallucinatory states. […] In an effort to develop Structure-Activity Relationships around the chosen compounds, a search of commercially available compounds that are either close structural analogs of these lead compounds (for example, acridine and quinoline analogs of quinacrine) or are related to these in terms of their pharmacological activity (dopamine receptor antagonists related to spiperone) was performed.

In a further data set the test system is C6. Description: TUNEL labeling in C6. The class given is cell-based, rat. The note with it: C6, 24 hours. Here is the method: C6 were plated on glass coverslips. Cells were fixed and stained accordingly to manufacturer instructions. Propidium staining of the nuclei was replaced by Hoechst included in the mounting media. Several images were acquired with a high resolution camera on a microscope equipped with a 10× long working distance dry lens and analyzed with powerful commercial software. Results were expressed in the graph as green labeled pixel counts. The images from the top to the bottom are respectively from N.T., DMSO, Thap 20 nM, Thap 200 nM, STS100 nM. The blue images reflect nuclear staining while the images on the right represent BRDU staining.
Thereafter, cells were harvested and protein extracted. Procaspase 12 band at 65 kDa was identified. In some of the treatments, the active product at 45 kDa was also detected. […] Conversely, in C6, higher GRP78 levels and the cell environment reflect significant caspase activation. […] Caspase activation in ERSR conditions was also confirmed with a TUNEL based apoptosis detection system in C6. […] High resolution images of the experiments were acquired and image morphometric analysis was performed to determine quantitative parameters of the staining as previously described (Pascale et al., 2004, “Translocation of protein kinase C-betaII in astrocytes requires organized actin cytoskeleton and is not accompanied by synchronous RACK1 relocation.” Glia 46(2): 169-82). […]

The mark [4] stands for this setting: 200 mg/kg daily oral for 14 days.
Setting [5] is: full dose over about 45 days, Q oral, 9-AA I.P.
Setting [6] is: half dose (maintenance dose) up to about 60 days.

Take `CCN(CC)CCCC(C)Nc1c2ccc(Cl)cc2nc2ccc(OC)cc12` (stereo not drawn) [quinacrine]: in the data set with platelets, the “alpha-granule release reaction of platelets” value is listed as “prevent the alpha-granule release reaction of platelets”. Further, the peak concentration entry in [1] is listed as “less than 10 ng/ml”. Moreover, the “p53 activation and p53-dependent killing of tumor cell types” value in the data set on p53 was “capable of p53 activation and p53-dependent killing”. Further, the antiglioma action result in data set [2] (100 mg/kg of quinacrine and 10 mg/kg 9-aminoacridine) is listed as “powerful antiglioma action”. Also, in data set [2] (200 mg/kg daily oral), the “delay in tumor growth” value is 14 days and the “tumor growth after withdrawal of treatment versus controls” value was “significant reduction in tumor growth than controls”. In addition, in data set [2] (setting [4]), the “estimated survival prolongment in mice life” value is listed as 14 days, the “tumor in one of the treated animals” value is on record as “disappearance of the tumor” and the “tumor size in treated animals” value was “tumors decrease in size”. Besides, the “effect on tumor growth” value in data set [2] (200 mg/kg daily oral, at 11 days) is listed as “already significant”. Moreover, in data set [2] (200 mg/kg daily oral, at 21 days), the “inhibition of tumor growth” value is on record as 6-7 folds. In [2] (setting [5]), the “animal survival rate compared to control” value is on record as “increased survival rate” and the “tumor size compared to control” value was “decrease in tumor size”. Besides, in [2] (setting [6]), the “animal survival rate compared to control” value is on record as “survival rate was high” and the “tumor size compared to control” value is “tumor size remained relatively constant”. The “delay / survival prolongment translated to human life” value in [2] (life expectancy 18 months in mice, 90 years in human) is listed as 851 days. In data set [2] (quinacrine 200 mg/kg daily oral, one animal tumor-free), the cure rate is reported as 16%. Moreover, the DNA damaging activity entry in the data set on DNA was “not found to show DNA damaging activity”. Also, the “toxicity to tumor versus normal cells” value with tumor cells was “more toxic to tumor than to normal cells”. In [3], the “ERSR activation and GRP78 target protein in tumor explants” value is “activaiton of ERSR and changes in GRP78 target protein”; the “caspase 12 activation in tumor explants” value is reported as “activation of caspase 12 is evident”. The “cytotoxicity in human cells versus rat cells” value in the data set on glioma cells is given as “higher cytotoxicity in human cells than in rat cells”. Also, the gliotoxicity entry in the data set on glioma cells (cell line not stated) is “by far the most effective gliotoxic compound”.

For the molecule `C/C=C(/C)C(=O)O[C@H]1C(C)=C2[C@H]([C@@H]1OC(=O)CCCCCCC)[C@@](C)(OC(C)=O)C[C@H](OC(=O)CCC)[C@@]1(O)[C@H]2OC(=O)[C@@]1(C)O` [THAP, thapsigargin], the TUNEL labeling entry in the data set with C6 is listed as “clear increase of TUNEL labeling”.

The record behind these values is patent publication US20110060000A1, “ACRIDINE ANALOGS IN THE TREATMENT OF GLIOMAS” (priority 2009, published 2011).
